These results are taken from patent publication US7119088B2, “Triazole compounds useful in therapy” (Pfizer Inc., priority 2003, dated 2006).

Counter-ions that a name gives are not always drawn.

This experiment addresses T1, human V1A receptor (Homo sapiens, UniProt P37288).
T1 construct: host or cells: CHO (CHO-hV1A), membrane preparation
The experiment is described as follows: V1A filter binding assay (screen 1.0). The note with it: [3H]-AVP binding to CHO-hV1A membranes; Ki by Cheng-Prusoff. On the procedure: 1.0 V1A Filter Binding Assay
Receptor binding assays were performed on cellular membranes prepared from CHO cells stably expressing the human V1A receptor, (CHO-hV1A). The CHO-hV1A cell line was kindly provided under a licensing agreement by Marc Thibonnier, Dept. of Medicine, Case Western Reserve University School of Medicine, Cleveland, Ohio. CHO-hV1A cells were routinely maintained at 37° C. in humidified atmosphere with 5% CO2 in DMEM/Hams F12 nutrient mix supplemented with 10% fetal bovine serum, 2 mM L-glutamine, 15 mM HEPES and 400 μg/ml G418. For bulk production of cell pellets, adherent CHO-hV1A cells were grown to confluency of 90–100% in 850 cm^2 roller bottles containing a medium of DMEM/Hams F12 Nutrient Mix supplemented with 10% fetal bovine serum, 2 mM L-glutamine and 15 mM HEPES. Confluent CHO-hV1A cells were washed with phosphate-buffered saline (PBS), harvested into ice cold PBS and centrifuged at 1,000 rpm. Cell pellets were stored at −80° C. until use. Cell pellets were thawed on ice and homogenised in membrane preparation buffer consisting of 50 mM Tris-HCl, pH 7.4, 5 mM MgCl2 and supplemented with a protease inhibitor cocktail, (Roche). The cell homogenate was centrifuged at 1000 rpm, 10 min, 4° C. and the supernatant was removed and stored on ice. The remaining pellet was homogenised and centrifuged as before. The supernatants were pooled and centrifuged at 25,000×g for 30 min at 4° C. The pellet was resuspended in freezing buffer consisting of 50 mM Tris-HCl, pH 7.4, 5 mM MgCl2 and 20% glycerol and stored in small aliquots at −80° C. until use. Protein concentration was determined using Bradford reagent and BSA as a standard.
Protein linearity followed by saturation binding studies were performed on each new batch of membrane. Membrane concentration was chosen that gave specific binding on the linear portion of the curve.
Compounds were tested for their effects on [^3H]-AVP binding to CHO-hV1A membranes, (^3H-AVP; specific activity 65.5 Ci/mmol; NEN Life Sciences). Compounds were solubilised in dimethylsulfoxide (DMSO) and diluted to working concentration of 10% DMSO with assay buffer containing 50 mM Tris-HCL pH 7.4, 5 mM MgCl2 and 0.05% BSA. […] The binding reaction was initiated by the addition of 200 μl membrane and the plates were gently shaken for 60 min at room temperature. […] The filters were washed three times with 1 ml ice cold wash buffer containing 50 mM Tris-HCL pH 7.4 and 5 mM MgCl2. The plates were dried and 50 μl Microscint-O (Packard instruments) was added to each well. The plates were sealed and counted on a TopCount Microplate Scintillation Counter (Packard Instruments). Non-specific binding (NSB) was determined using 1 μM unlabelled d(CH2)5Tyr(Me)AVP ([β-mercapto-β,β-cyclopentamethylenepropionyl,0-Me-Tyr^2,Arg^8]-vasopressin ) (βMCPVP), (Sigma). The radioligand binding data was analysed using a four parameter logistic equation with the min forced to 0%. […] Specific binding was calculated by subtracting the mean NSB cpm from the mean Total cpm. For test compounds the amount of ligand bound to the receptor was expressed as % bound=(sample cpm—mean NSB cpm)/specific binding cpm×100. The % bound was plotted against the concentration of test compound and a sigmoidal curve was fitted. The inhibitory dissociation constant (Ki) was calculated using the Cheng-Prusoff equation: Ki=IC50/(1+[L]/Kd) where [L] is the concentration of ligand present in the well and Kd is the dissociation constant of the radioligand obtained from Scatchard plot analysis.

Broadly, the Ki is a dissociation constant, usually derived from enzyme kinetics or from competition with a known ligand. Low values mean higher affinity, high ones lower affinity.

T1 sequence (P37288 whole entry): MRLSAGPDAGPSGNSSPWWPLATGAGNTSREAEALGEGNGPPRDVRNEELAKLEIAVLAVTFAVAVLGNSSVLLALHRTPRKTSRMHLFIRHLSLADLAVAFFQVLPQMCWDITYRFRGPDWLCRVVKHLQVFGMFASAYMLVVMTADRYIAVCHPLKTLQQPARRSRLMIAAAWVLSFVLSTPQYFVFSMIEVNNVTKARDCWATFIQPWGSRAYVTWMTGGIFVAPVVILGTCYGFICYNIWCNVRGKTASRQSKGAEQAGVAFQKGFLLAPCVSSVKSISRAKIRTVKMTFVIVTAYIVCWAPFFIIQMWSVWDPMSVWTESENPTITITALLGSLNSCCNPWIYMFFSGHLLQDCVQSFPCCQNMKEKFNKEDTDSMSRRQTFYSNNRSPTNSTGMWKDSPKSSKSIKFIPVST

`CC(C)N1Cc2cc(Cl)ccc2-n2c(nnc2C2CCN(c3ccccn3)CC2)C1` [Example 6, 8-Chloro-5-isopropyl-1-(3,4,5,6-tetrahydro-2H-[1,2′]bipyridinyl-4-yl)-5,6-dihydro-4H-2,3,5,10b-tetraaza-benzo[e]azulene trihydrochloride] displayed a Ki of 2.37 nM.
`CN1CCOC(CN2Cc3cc(Cl)ccc3-n3c(nnc3C3CCN(c4ccccn4)CC3)C2)C1` (single isomer, unassigned) [Example 74, 8-Chloro-5-(4-methyl-morpholin-2-ylmethyl)-1-(3,4,5,6-tetrahydro-2H-[1,2′]bipyridinyl-4-yl)-5,6-dihydro-4H-2,3,5,10b-tetraaza-benzo[e]azulene] gave a Ki of 6.02 nM.
For `CN1CCc2cc(Cl)ccc2-n2c(nnc2C2CCN(c3ncccn3)CC2)C1` [Example 103, 13-Chloro-8-methyl-3-(1-pyrimidin-2-yl-piperidin-4-yl)-2,4,5,8-tetraaza-tricyclo[9.4.0.0*2,6*]pentadeca-1(11),3,5,12,14-pentaene], the Ki was determined as 2.02 nM.
As for `CN1CCOC(CN2Cc3cc(Cl)ccc3-n3c(nnc3C3CCN(c4ccccn4)CC3)C2)C1` (single isomer, unassigned) [Example 73, 8-Chloro-5-(4-methyl-morpholin-2-ylmethyl)-1-(3,4,5,6-tetrahydro-2H-[1,2′]bipyridinyl-4-yl)-5,6-dihydro-4H-2,3,5,10b-tetraaza-benzo[e]azulene], the Ki turned out to be 6.84 nM.
Turning to `Clc1ccc2c(c1)CN(c1ncccn1)Cc1nnc(C3CCN(c4ccccn4)CC3)n1-2` [Example 93, 8-Chloro-5-pyrimidin-2-yl-1-(3,4,5,6-tetrahydro-2H-[1,2′]bipyridinyl-4-yl)-5,6-dihydro-4H-2,3,5,10b-tetraaza-benzo[e]azulene], the Ki was found to be 2.33 nM.
For `CN(C)S(=O)(=O)N1Cc2cc(Cl)ccc2-n2c(nnc2C2CCN(c3ncccn3)CC2)C1` [Example 100, 8-Chloro-1-(1-pyrimidin-2-yl-piperidin-4-yl)-4H,6H-2,3,5,10b-tetraaza-benzo[e]azulene-5-sulphonic acid dimethylamide], the inhibition constant (Ki) is 0.77 nM.
`CN1CCc2cc(Cl)ccc2-n2c(nnc2C2CCN(c3ccccn3)CC2)C1` [Example 24, 13-Chloro-8-methyl-3-(3,4,5,6-tetrahydro-2H-[1,2′]bipyridinyl-4-yl)-2,4,5,8-tetraaza-tricyclo[9.4.0.0*2,6*]pentadeca-1(11),3,5,12,14-pentaene]: affinity was put at a Ki of 1 nM.
The molecule `CN(C)CC(=O)N1Cc2cc(Cl)ccc2-n2c(nnc2C2CCN(c3ccccn3)CC2)C1` [Example 38, 1-[8-Chloro-1-(3,4,5,6-tetrahydro-2H-[1,2′]bipyridinyl-4-yl)-4H,6H-2,3,5,10b-tetraaza-benzo[e]azulen-5-yl]-2-dimethylamino-ethanone] returned an inhibition constant Ki of 4.63 nM. Against the preceding molecule, the Ki is about 4.6-fold higher.
Consider `CS(=O)(=O)N1Cc2cc(Cl)ccc2-n2c(nnc2C2CCN(c3ncccn3)CC2)C1` [Example 15, 8-Chloro-5-methanesulfonyl-1-(1-pyrimidin-2-yl-piperidin-4-yl)-5,6-dihydro-4H-2,3,5,10b-tetraaza-benzo[e]azulene], for which the affinity, expressed as Ki, was 4.71 nM.
Consider `O=C(N1CCOCC1)N1Cc2cc(Cl)ccc2-n2c(nnc2C2CCN(c3ccccn3)CC2)C1` [Example 59], for which the Ki worked out at 1.32 nM.
For `CN1CCc2nnc(C3CCN(c4ccccn4)CC3)n2-c2ccc(Cl)cc2C1` [Example 102, 13-Chloro-9-methyl-3-(3,4,5,6-tetrahydro-2H-[1,2′]bipyridinyl-4-yl)-2,4,5,9-tetraaza-tricyclo[9.4.0.0*2,6*]pentadeca-1(11),3,5,12,14-pentaene], the inhibition constant Ki was 4.16 nM.
Take `CN1Cc2cc(Cl)ccc2-n2c(nnc2C2CCN(c3ncccn3)CC2)C1` [Example 13, 8-Chloro-5-methyl-1-(1-pyrimidin-2-yl-piperidin-4-yl)-5,6-dihydro-4H-2,3,5,10b-tetraaza-benzo[e]azulene]: the inhibition constant (Ki) was 13.9 nM. Against the preceding molecule, the Ki is about 3.3-fold higher.
Turning to `Clc1ccc2c(c1)CCOCc1nnc(C3CCN(c4ccccn4)CC3)n1-2` [Example 27, 13-Chloro-3-(3,4,5,6-tetrahydro-2H-[1,2′]bipyridinyl-4-yl)-8-oxa-2,4,5-triaza-tricyclo[9.4.0.0*2,6*]pentadeca-1(11),3,5,12,14-pentaene], the affinity, expressed as Ki, was 1.25 nM.
